Patent publication US9284333B2, “Fused pyrroledicarboxamides and their use as pharmaceuticals” (SANOFI, priority 2012, dated 2016)

Target: Human TASK-1 channels (Homo sapiens (Human), UniProt O14649)
Test: Determination of the activity on the TASK-1 channel in Xenopus oocytes (two-microelectrode voltage clamp)
Format: cell-based
Settings: for IC50: human TASK-1 expressed in Xenopus oocytes, room temperature, read-out: IC50 value for TASK-1 inhibition
Outline: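 Xenopus oocytes were injected with human TASK-1 cRNA and recorded two days later by two-microelectrode voltage clamp, holding at −90 mV with 500 ms steps to 40 mV. Superfusion used ND96, pH 7.4, at room temperature, with rising compound concentrations; percentage inhibition of control current was fitted to a dose-response curve for IC50.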

Chain of Human TASK-1 channels (O14649 whole entry): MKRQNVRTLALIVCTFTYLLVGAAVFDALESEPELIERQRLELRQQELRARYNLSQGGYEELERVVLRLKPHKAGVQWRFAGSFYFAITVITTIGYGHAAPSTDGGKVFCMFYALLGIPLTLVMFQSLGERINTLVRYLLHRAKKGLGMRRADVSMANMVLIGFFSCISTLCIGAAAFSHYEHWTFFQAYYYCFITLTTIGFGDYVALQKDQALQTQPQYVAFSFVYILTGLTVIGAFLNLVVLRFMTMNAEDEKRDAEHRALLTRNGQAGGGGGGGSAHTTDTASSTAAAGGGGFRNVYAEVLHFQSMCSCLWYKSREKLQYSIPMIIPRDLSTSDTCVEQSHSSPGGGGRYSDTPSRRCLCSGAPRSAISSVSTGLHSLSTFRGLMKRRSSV

| Structure (SMILES) | IC50 | inhibition at 5 µM (compound concentration 5 μM) |
| --- | --- | --- |
| CC[C@@H](NC(=O)c1c(Br)c(C(=O)N2CCC[C@@H]2C)n2c1COCC2)c1ccc(C(F)(F)F)nc1 [16ru, 7-Bromo-6-((S)-2-methyl-pyrrolidine-1-carbonyl)-3,4-dihydro-1H-pyrrolo[2,1-c][1,4]oxazine-8-carboxylic acid [(R)-1-(6-trifluoromethyl-pyridin-3-yl)-propyl]-amide] | 820 nM |  |
| CC[C@@H](NC(=O)c1cc(C(=O)NCC(C)(C)C)n2c1COCC2)c1ccccc1 [16go, 3,4-Dihydro-1H-pyrrolo[2,1-c][1,4]oxazine-6,8-dicarboxylic acid 6-[(2,2-dimethyl-propyl)-amide] 8-[((R)-1-phenyl-propyl)-amide]] | 900 nM |  |
| CC[C@@H](NC(=O)c1cc(C(=O)N2CCC[C@@H]2c2ccc(OC)nc2)n2c1COCC2)c1ccccc1 [16fl, 6-[(R)-2-(6-Methoxy-pyridin-3-yl)-pyrrolidine-1-carbonyl]-3,4-dihydro-1H-pyrrolo[2,1-c][1,4]oxazine-8-carboxylic acid ((R)-1-phenyl-propyl)-amide] | 240 nM |  |
| CC[C@@H](NC(=O)c1cc(C(=O)N[C@H](CC)c2cccnc2C(F)(F)F)n2c1COCC2)c1ccccc1 [16hm, 3,4-Dihydro-1H-pyrrolo[2,1-c][1,4]oxazine-6,8-dicarboxylic acid 8-[((R)-1-phenyl-propyl)-amide] 6-{[(R)-1-(2-trifluoromethyl-pyridin-3-yl)-propyl]-amide}] | 660 nM |  |
| CC[C@@H](NC(=O)c1cc(C(=O)N2CCC[C@@H]2C)n2c1COCC2)c1cnc(OC)c(Cl)c1 [16b, 6-((S)-2-Methyl-pyrrolidine-1-carbonyl)-3,4-dihydro-1H-pyrrolo[2,1-c][1,4]oxazine-8-carboxylic acid [(R)-1-(5-chloro-6-methoxy-pyridin-3-yl)-propyl]-amide] | 61 nM |  |
| CC[C@@H](NC(=O)c1cc(C(=O)NC(C)c2cccc(S(N)(=O)=O)c2)n2c1COCC2)c1ccccc1 (stereo partly drawn) [16ip, 3,4-dihydro-1H-pyrrolo[2,1-c][1,4]oxazine-6,8-dicarboxylic acid 8-[((R)-1-phenyl-propyl)-amide] 6-{[1-(3-sulfamoyl-phenyl)ethyl]-amide}] | 1800 nM |  |
| CC[C@H](NC(=O)c1cc(C(=O)N[C@H](CC)c2ccccc2)c2n1CCOC2)c1ccc(OC)nc1 [16hp, 3,4-Dihydro-1H-pyrrolo[2,1-c][1,4]oxazine-6,8-dicarboxylic acid 6-{[(S)-1-(6-methoxy-pyridin-3-yl)-propyl]-amide} 8-[((R)-1-phenyl-propyl)-amide]] | 560 nM |  |
| CC[C@@H](NC(=O)c1cc(C(=O)N2CCC[C@@H]2C)n2c1COCC2)c1ccc(Cl)cc1 [16pg, 6-((S)-2-Methyl-pyrrolidine-1-carbonyl)-3,4-dihydro-1H-pyrrolo[2,1-c][1,4]oxazine-8-carboxylic acid [(R)-1-(4-chloro-phenyl)-propyl]-amide] | 190 nM |  |

Other lines, results leading:

| IC50 | inhibition at 5 µM (compound concentration 5 μM) | Structure (SMILES) |
| --- | --- | --- |
| 1900 nM |  | CC[C@@H](NC(=O)c1cc(C(=O)N2CCC(F)(F)CC2)n2c1CCCC2)c1ccccc1 [16mo, 3-(4,4-Difluoro-piperidine-1-carbonyl)-5,6,7,8-tetrahydro-indolizine-1-carboxylic acid ((R)-1-phenyl-propyl)-amide] |
| 5100 nM |  | CC[C@@H](NC(=O)c1cc(C(=O)N2CCCC2c2ncccn2)n2c1COCC2)c1ccccc1 (stereo partly drawn) [16fz, 6-(2-Pyrimidin-2-yl-pyrrolidine-1-carbonyl)-3,4-dihydro-1H-pyrrolo[2,1-c][1,4]oxazine-8-carboxylic acid ((R)-1-phenyl-propyl)-amide] |
|  | 59% | CC[C@@H](NC(=O)c1cc(C(=O)N2CC[C@@H](C#N)C2)n2c1COCC2)c1ccccc1 [16fy, 6-((R)-3-Cyano-pyrrolidine-1-carbonyl)-3,4-dihydro-1H-pyrrolo[2,1-c][1,4]oxazine-8-carboxylic acid ((R)-1-phenyl-propyl)-amide] |
| 330 nM |  | CC[C@@H](NC(=O)c1cc(C(=O)N2CC[C@H](OCC3CC3)C2)n2c1COCC2)c1ccccc1 [16ev, 6-((S)-3-Cyclopropylmethoxy-pyrrolidine-1-carbonyl)-3,4-dihydro-1H-pyrrolo[2,1-c][1,4]oxazine-8-carboxylic acid ((R)-1-phenyl-propyl)-amide] |
